Laboratory results reported in patent publication US20220214361A1, “Method for Screening Candidate Drug for Treating Degenerative Brain Diseases” (THE INDUSTRY & ACADEMIC COOPERATION IN CHUNGNAM NATIONAL …, priority 2019, published 2022).
“Also recorded” adds a separate entry of the source.

Legend:
[1] = system: FAF1 protein secretion in SH-SY5Y cells overexpressing FAF1; experiment: Secretion of FAF1 protein into culture medium after Brefeldin A treatment (ER-Golgi pathway), Western blotting; type: cell-based, human; conditions: 10 μM, 24 hours, serum-free DMEM, SH-SY5Y cells transfected with 3x Flag tag-FAF1 vector, FIG. 2b
Procedure: (§1) Particularly, SH-SY5Y cells were aliquoted into 60 mm culture dishes at the density of 5×10^5 cells/dish, and subcultured in DMEM (Dulbecco/s Modified Eagle's Medium) supplemented with antibiotics and 10% FBS (fetal bovine serum) under the conditions of 37° C. and 5% CO2 for 24 hours. The cultured SH-SY5Y cells were transfected with 2 μg of 3x Flag tag-FAF1 expression vector to overexpress FAF1 protein, cultured for 24 hours, and then washed with PPS buffer. Thereafter, the medium was replaced with serum-free DMEM (Dulbecco/s Modified Eagle's Medium), and the cells were treated with 10 μM Brefeldin A (BFA), a compound that inhibits protein secretion through the ER-Golgi pathway, and further cultured in an incubator for 24 hours. The medium was transferred to a 15 ml tube and centrifuged at 1500 rpm for 2 minutes to obtain a supernatant. The obtained supernatant was placed in Amicon Ultra-4 Centrifugal Filter, and centrifuged again at 4000×g, 4° C. for 15 minutes. The protein filtered by the filter was analyzed by Western blotting.

[2] = system: FAF1 protein secretion in SH-SY5Y cells overexpressing FAF1; experiment: Secretion of FAF1 protein into culture medium after treatment with compounds that increase or decrease exosome secretion, Western blotting; type: cell-based, human; conditions: 10 μM, 24 hours, serum-free DMEM, SH-SY5Y cells transfected with 3x Flag tag-FAF1 vector, FIG. 3
Procedure: as §1, with “PBS” for “PPS”, “Monensin” for “Brefeldin A (BFA), a”, “to increase exosome” for “that inhibits protein”, “and 10 μM GW4869 compound to decrease exosome secretion,” for “through the ER-Golgi pathway,”, “cultured” for “cultured in an incubator”

Row | SMILES | expression level of FAF1 protein (secreted into culture medium) versus group not treated [1] | secretion amount of FAF1 compared to control group [2]
1 | C[C@H]1CCC/C=C/[C@@H]2C[C@H](O)C[C@H]2[C@H](O)/C=C/C(=O)O1 [Brefeldin A] | constant; also recorded: no difference | 
2 | O=C(/C=C/c1ccc(/C=C/C(=O)Nc2ccc(C3=NCCN3)cc2)cc1)Nc1ccc(C2=NCCN2)cc1 [GW4869] |  | decreased
3 | CC[C@@]1([C@@H]2O[C@@H]([C@H]3O[C@@](O)(CO)[C@H](C)C[C@@H]3C)C[C@@H]2C)CC[C@H]([C@]2(C)CC[C@]3(C[C@H](O)[C@@H](C)[C@@H]([C@@H](C)[C@@H](OC)[C@H](C)C(=O)O)O3)O2)O1 [Monensin] |  | significantly increased
